According to patent US8901295B2 (Institut National de la Sante et de la Recherche Medicale …, priority 2009, dated 2014):
pEC50, pIC50: −log10 of the molar value. Like-named read-outs stand apart in the source and are kept apart here.

Columns and labels:
[1] = target: Cyclophilin B (CypB) (Homo sapiens (Human), UniProt P23284); test: Cyclophilin PPIase enzymatic assay (chymotrypsin coupled), CypB; type: biochemical; details: for Inhibition (%): activity test at 100 μM on CypB; for pIC50: CypB
Procedure: (§1) Cyclophilin A, B protein carrying a hexahistidine tag (His-Tag) at the C-terminus, were expressed in Escherichia coli and purified. Briefly, cultures of C41(DE3) cells were grown at 37° C. for ˜1 h until the culture reached an optical density of 0.6 at 600 nm, and induced with 1 mM isopropyl β-D-thiogalactoside for 4 h at 37° C. or overnight at 22° C. for cylophilin A and cyclophilin B, respectively. Cell pellets (1 L) were resuspended in a lysis buffer (20 mM NaH2PO4 (pH 7.8), 300 mM NaCl, 7 mM β-mercaptoethanol, 1 mg/ml lysozyme, 0.1 U/μl Desoxyribonuclease and complete protease inhibitor tablets (Roche)). The sonicated cell lysates were clarified by centrifugation at 10 000 g for 45 min at 4° C., chromatographed on a Ni-NTA column and washed with buffer: (20 mM NaH2PO4 (pH7.8), 300 mM NaCl, 50 mM imidazole, 7 mM β-mercaptoethanol, 10% glycerol). The bound protein was eluted in 1 ml fractions with buffer: (20 mM NaH2PO4 (pH7.8), 300 mM NaCl, 250 mM imidazole, 7 mM β-mercaptoethanol, 10% glycerol) and monitored by the Bradford colorimetric assay. The purity of each cyclophilin was determined by Coomassie-stained SDS-PAGE analysis.
(§2) The reaction was initiated by adding 20 μL of 3.2 mM peptide substrate (Suc-Ala-Ala-cis-Pro-Phe-pNA) in LiCl/TFE solution with rapid inversion. […] The final concentration of LiCl in the assay was 20 mM; TFE was present at a concentration of 4% (v/v). Absorbance readings were collected every 1 s by spectrophotometer. The inhibition assays of compounds were performed in the same manner as mentioned above. A 5 μL aliquot of the compounds in DMSO was added to the cyclophilin solution in the assay buffer. The assay was started by the addition of the substrate. Cyclosporine A was used as control in all measurement. The percentage inhibition of cyclophilin PPiase activity were calculated from slopes and values obtained represent an average of at least two independent measurements.

[2] = target: Cyclophilin D (CypD) (Homo sapiens, UniProt P30405, K175I); test: Cyclophilin PPIase enzymatic assay (chymotrypsin coupled), CypD; type: biochemical
Cyclophilin D (CypD), sequence (P30405 30-207 K175I limits assumed): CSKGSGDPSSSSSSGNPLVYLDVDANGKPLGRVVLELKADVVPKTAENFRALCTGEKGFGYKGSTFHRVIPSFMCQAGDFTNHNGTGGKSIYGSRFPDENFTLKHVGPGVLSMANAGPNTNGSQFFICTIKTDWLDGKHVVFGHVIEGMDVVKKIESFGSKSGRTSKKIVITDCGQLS
Procedure: The protein was expressed in E. coli strain BL21(DE3). Bacteria were grown in LB medium at 37° C. and induced during 2 h with isopropyl-β-D-thiogalactopyranoside (IPTG) around OD 0.8. Cells were lysed by sonication in a buffer consisting of 50 mM Tris at pH 7.5, 2 mM EDTA and 2 mM β-mercaptoethanol (buffer A). The lysate was centrifuged at 40000 g for 30 min. The supernatant was loaded on a Q-Sepharose and S-Sepharose columns in series equilibrated with buffer A. The S-Sepharose column was washed with equilibrium buffer and bound proteins were eluted with a linear gradient from 0 to 1M NaCl.
as §2

[3] = target: Cyclophilin A (CypA) (Homo sapiens (Human), UniProt P62937); test: Cyclophilin PPIase enzymatic assay (chymotrypsin coupled), CypA; type: biochemical; details: for pIC50: CypA
Cyclophilin A (CypA), sequence (P62937 whole entry): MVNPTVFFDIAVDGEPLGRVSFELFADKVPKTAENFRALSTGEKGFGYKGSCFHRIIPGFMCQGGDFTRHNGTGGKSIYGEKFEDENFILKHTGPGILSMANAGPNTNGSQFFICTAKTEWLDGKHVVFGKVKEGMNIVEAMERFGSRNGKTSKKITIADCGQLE
Procedure: as §1, §2

[4] = test system: HCV genotype 1b bicistronic replicon in Huh7 cells; test: Antiviral activity in the replicon model; type: cell-based; details: Hepatitis C virus, Huh-7, 72 h; for pEC50: HCV genotype 1b replicon, Huh7 cells, 3 days, HCV RNA, read-out: EC50 replicon
Procedure: HCV replicon harboring cells were seeded at a low density of 5000 cells per well in 96-well plates. The cells were treated with increasing concentrations of the tested compounds in Dulbecco modified Eagle medium containing 10% fetal bovine serum and 1% DMSO without G418 and cultured for 3 days. Total RNA was extracted using the RNeasy 96 kit (Qiagen). […] HCV RNA levels were measured by means of […]. The results were normalized to GAPDH gene. Each data point represents the average of at least three replicates in cell culture. HCV RNA level reductions after treatment were assessed by comparing the level of HCV RNA in compound-treated cells to that of control cells treated with 1% DMSO.

[5] = Acute toxicity in mice; type: in vivo; details: female mice, 1, 10, 50 and 150 mg/kg, one intraperitonal injection
Procedure: The acute toxicity of F684 was evaluated in mice. In this study, female mice (n=3/group) were administered with the negative control (PBS) or F684 (1 mg/kg, 10 mg/kg, 50 mg/kg and 150 mg/kg of body weight dissolved in PBS), one time by intraperitonal injection. At the time of injection, animals were approximately 5 month old and body weights ranged from 27 to 33 g.

[6] = activity test at 100 μM on CypA, read-out: Inhibition (%)

Cyclophilin B (CypB), sequence (P23284 34-216): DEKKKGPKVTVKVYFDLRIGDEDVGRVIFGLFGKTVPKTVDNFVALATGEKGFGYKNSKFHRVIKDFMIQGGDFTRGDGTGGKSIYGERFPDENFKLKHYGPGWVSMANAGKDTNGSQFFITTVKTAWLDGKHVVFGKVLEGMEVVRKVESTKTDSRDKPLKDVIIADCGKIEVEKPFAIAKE

| Compound | inhibition at 100 µM [2] [%] | inhibition at 100 µM [1] [%] | inhibition at 100 µM [3, 6] [%] | pIC50 [3] | further results |
| --- | --- | --- | --- | --- | --- |
| 2-(3-(3-acetamidobenzyl)ureido)acetate [Compound F566] | – | – | – | – | Inhibition (%) [1]: 26.5%; Inhibition (%) ([2]; activity test at 100 μM on CypD): 22.7% |
| CCOC(=O)CNC(=O)NCc1ccc(OC)cc1 [Compound F429, ethyl 2-(3-(4-methoxybenzyl)ureido)acetate] | – | – | – | – | inhibition at 1000 µM [2]: 42.1% |
| CCOC(=O)CNC(=O)NCC1CCNCC1 [Compound F509, ethyl 2-(3-(piperidin-4-ylmethyl)ureido)acetate] | 18.3 | – | – | – | – |
| CCOC(=O)CNC(=O)NCc1cccc(F)c1 [Compound F511, ethyl 2-(3-(3-fluorobenzyl)ureido)acetate] | 12.9 | – | – | – | – |
| CCOC(=O)CNC(=O)NCc1cccc(OC)c1 [Compound F512, ethyl 2-(3-(3-methoxybenzyl)ureido)acetate] | 26.5 | 16.6 | – | – | – |
| CCOC(=O)CNC(=O)NCc1ccc(O)c(O)c1 [Compound F548, ethyl 2-(3-(3,4-dihydroxybenzyl)ureido)acetate] | 25.5 | 20.8 | – | – | – |
| CCOC(=O)CNC(=O)NCc1cccc(N)c1 [Compound F549, ethyl 2-(3-(3-aminobenzyl)ureido)acetate] | 24.5 | 48.9 | 14.8 | – | – |
| Nc1ccc(CNC(=O)NCC(=O)N2CCOC(CN3C(=O)c4ccccc4C3=O)C2)cc1 (stereo not drawn) [Compound F554, 1-(4-aminobenzyl)-3-(2-(2-((1,3-dioxoisoindolin-2-yl)methyl)morpholino)-2-oxoethyl)urea] | 20.9 | 70.9 | 67.2 | – | pIC50 [1]: 4.61 |
| COc1ccc(N(C)C(=O)CNC(=O)NCc2ccc(N)cc2)cc1 [Compound F555, 2-(3-(4-aminobenzyl)ureido)-N-4-methoxyphenyl-N-methylacetamide] | 26.1 | – | 65.1 | – | – |
| CN(C(=O)CNC(=O)NCc1ccc(N)cc1)c1ccccc1 [Compound F557, 2-(3-(4-aminobenzyl)ureido)-N-phenyl-N-methylacetamide] | 42.9 | – | 63.4 | – | – |
| CCN(O)C(=O)CNC(=O)NCc1ccc(N)nc1 [Compound F606, 2-(3-((6-aminopyridin-3-yl)methyl)ureido)-N-hydroxy-N-ethylacetamide] | – | 17.3 | 18.9 | – | – |
| CCN(OCc1ccccc1)C(=O)CNC(=O)NCc1ccc(N)cc1 [Compound F607] | – | – | – | 5.05 | pIC50 [1]: 5.32; Inhibition (%) [1]: 95.3%; pIC50 ([2]; CypD, read-out: CypD IC50): 4.52 |
| Nc1ccc(CNC(=O)Nc2cnc3sccn3c2=O)cc1 [Compound F608, 1-(4-aminobenzyl)-3-(5-oxo-5H-thiazolo[3,2-a]pyrimidin-6-yl)urea] | – | 38.7 | 26.3 | – | – |
| COc1ccccc1C1CCCN1C(=O)CNC(=O)NCc1ccc(N)cc1 (stereo not drawn) [Compound F609, 1-(4-aminobenzyl)-3-(2-(2-(2-methoxyphenyl)pyrrolidin-1-yl)-2-oxoethyl)urea] | – | 101 | – | 5.55 | inhibition at 100 µM [3]: 100%; pIC50 [1]: 5.92; pIC50 [2]: 4.94; pEC50 [4]: 4.70 |
| CCOC(=O)C(Cc1cccc(OCc2ccccc2)c1)NC(=O)NCc1ccc(N)cc1 (stereo not drawn) [Compound F611, ethyl 2-(3-(4-aminobenzyl)ureido)-3-(3-(benzyloxy)phenyl)propanoate] | – | 73.3 | 72.8 | – | – |
| CCOC(=O)C(Cc1cccc(O)c1)NC(=O)NCc1ccc(N)cc1 (stereo not drawn) [Compound F612, ethyl 2-(3-(4-aminobenzyl)ureido)-3-(3-hydroxyphenyl)propanoate] | – | 26.7 | 26.3 | – | – |
| Nc1ccc(CNC(=O)NCC(=O)N2CCCC2c2cccc3ccccc23)cc1 (stereo not drawn) [Compound F671, 1-(4-aminobenzyl)-3-(2-(2-(naphthalen-1-yl)pyrrolidin-1-yl)-2-oxoethyl)urea] | – | – | – | 5.82 | pIC50 [2]: 5.85; pEC50 [4]: 5.37 |
| Nc1ccc(CNC(=O)NCC(=O)N2CCCC2c2ccccc2Cl)cc1 (stereo not drawn) [Compound F673, 1-(4-aminobenzyl)-3-(2-(2-(2-chlorophenyl)pyrrolidin-1-yl)-2-oxoethyl)urea] | – | – | – | 5.47 | pIC50 [2]: 5.21 |
| CSc1ccccc1C1CCCN1C(=O)CNC(=O)NCc1ccc(N)cc1 (stereo not drawn) [Compound F684, 1-(4-aminobenzyl)-3-(2-(2-(2-(methylthio)phenyl)pyrrolidin-1-yl)-2-oxoethyl)urea] | – | – | – | 6.43 | pIC50 [1]: 6.19; pIC50 [2]: 6.19; EC50 ([4]; read-out: EC50 replicon (μM)): 0.8 µM; acute toxicity [5]: not acutely toxic; body weights, feed consumption, clinical observations or gross organ necropsy vs vehicle control [5]: No differences; survival [5]: All animals survived to scheduled sacrifice |
| CSc1ccccc1C1CCCN1C(=O)C(CC(C)C)NC(=O)NCc1ccc(N)cc1 (stereo not drawn) [Compound F712, 1-(4-aminobenzyl)-3-(4-methyl-1-(2-(2-(methylthio)phenyl)pyrrolidin-1-yl)-1-oxopentan-2-yl)urea] | – | – | – | 5.48 | pIC50 [2]: 5.52 |
| CSc1ccccc1C1CCCN1C(=O)C(C)NC(=O)NCc1ccc(N)cc1 (stereo not drawn) [Compound F714, 1-(4-aminobenzyl)-3-(1-(2-(2-(methylthio)phenyl)pyrrolidin-1-yl)-1-oxopropan-2-yl)urea] | – | – | – | 5.51 | pIC50 [2]: 5.96 |
